Measured values published in patent US20240327412A1, “FACTOR XIIA INHIBITORS” (KALVISTA PHARMACEUTICALS LIMITED, priority 2021, published 2024).

target: T1, Human Factor XIIa (Homo sapiens, UniProt P00748); test: Determination of FXIIa inhibition (fluorogenic substrate H-DPro-Phe-Arg-AFC, IC50 assay); type: biochemical; details: substrate at Km concentration, 25° C.; category scale; read-out: Human FXII IC50 (nm)
T1 construct: Proteolytic cleavage of FXII to heavy and light chains of FXIIa dramatically increases catalytic activity; purchased Enzyme Research Laboratories
T1 sequence (P00748 373-615 limits assumed): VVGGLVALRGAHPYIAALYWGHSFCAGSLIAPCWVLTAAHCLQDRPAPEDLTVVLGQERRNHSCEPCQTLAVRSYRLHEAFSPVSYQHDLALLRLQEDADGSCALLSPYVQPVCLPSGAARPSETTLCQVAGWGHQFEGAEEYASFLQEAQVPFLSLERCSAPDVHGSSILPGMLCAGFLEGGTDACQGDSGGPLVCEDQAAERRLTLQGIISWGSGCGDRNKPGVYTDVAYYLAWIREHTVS
T1 sequence (P00748 20-372 partner limits assumed): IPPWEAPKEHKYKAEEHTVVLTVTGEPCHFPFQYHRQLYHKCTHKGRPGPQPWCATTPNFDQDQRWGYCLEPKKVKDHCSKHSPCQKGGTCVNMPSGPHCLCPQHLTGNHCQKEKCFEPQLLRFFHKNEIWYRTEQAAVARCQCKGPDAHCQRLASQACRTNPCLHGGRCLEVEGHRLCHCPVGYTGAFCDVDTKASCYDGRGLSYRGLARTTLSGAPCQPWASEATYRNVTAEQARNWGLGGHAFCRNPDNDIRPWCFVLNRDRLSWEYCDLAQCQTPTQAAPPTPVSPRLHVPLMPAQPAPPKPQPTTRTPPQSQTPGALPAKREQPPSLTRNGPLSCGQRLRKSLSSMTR
Method: In vitro inhibition of Factor XIIa was determined using an IC50 assay based on standard literature methods (see e.g Baeriswyl et al., ACS Chem. Biol., 2015, 10 (8) 1861; Bouckaert et al., European Journal of Medicinal Chemistry 110 (2016) 181). Human Factor XIIa (Enzyme Research Laboratories) was incubated at 25° C. with the fluorogenic substrate H-DPro-Phe-Arg-AFC (Peptide Protein Science) and various concentrations of the test compound. Protease activity was measured by monitoring the accumulation of liberated fluorescence from the substrate over 5 min at 25° C. The linear rate of fluorescence increase per minute was expressed as percentage (%) activity. The Km for the cleavage of the substrate by FXIIa was determined by standard transformation of the Michaelis-Menten equation. The compound inhibitor assays were performed at substrate Km concentration. IC50 values were calculated as the concentration of inhibitor giving 50% inhibition (IC50) of the uninhibited enzyme activity (100%).

SMILES | IC50
Nc1nccc2c(NCC34CC(COc5ccc6nncn6c5)(CO3)C4)cccc12 [Example 6634, N5-((4-(([1,2,4]triazolo[4,3-a]pyridin-6-yloxy)methyl)-2-oxabicyclo[2.1.1]hexan-1-yl)methyl)isoquinoline-1,5-diamine] | 1000 to 3000 nM
Nc1nccc2c(NCC34CC(Cn5ccnn5)(CO3)C4)cccc12 [Example 6648, N5-((4-((1H-1,2,3-triazol-1-yl)methyl)-2-oxabicyclo[2.1.1]hexan-1-yl)methyl)isoquinoline-1,5-diamine] | 10000 to 40000 nM
Nc1nccc2c(NCC34CC(COc5ccc6c(c5)C(=O)NC6=O)(CO3)C4)cccc12 [Example 6636, 5-((1-(((1-aminoisoquinolin-5-yl)amino)methyl)-2-oxabicyclo[2.1.1]hexan-4-yl)methoxy)isoindoline-1,3-dione] | 3000 to 10000 nM
Cn1ccc(OCC23CC(CNc4cccc5c(N)nccc45)(CN2C(=O)CCc2ccccn2)C3)cc1=O [Example 13016, 4-((4-(((1-aminoisoquinolin-5-yl)amino)methyl)-2-(3-(pyridin-2-yl)propanoyl)-2-azabicyclo[2.1.1]hexan-1-yl)methoxy)-1-methylpyridin-2(1H)-one] | 300 to 1000 nM
Nc1nccc2c(NCC34CC(Cn5cccn5)(CO3)C4)cccc12 [Example 6645, N5-((4-((1H-pyrazol-1-yl)methyl)-2-oxabicyclo[2.1.1]hexan-1-yl)methyl)isoquinoline-1,5-diamine] | 10000 to 40000 nM
COc1cc(OCC23COC(CNc4cccc5c(N)nccc45)(C2)C3)cn2ccnc12 [Example 6631, N5-((4-(((8-methoxyimidazo[1,2-a]pyridin-6-yl)oxy)methyl)-2-oxabicyclo[2.1.1]hexan-1-yl)methyl)isoquinoline-1,5-diamine] | 100 to 300 nM
Nc1nccc2c(NCC34CC(CN5C(=O)c6ccc(O)cc6C5=O)(CO3)C4)cccc12 [Example 6635, 2-((1-(((1-aminoisoquinolin-5-yl)amino)methyl)-2-oxabicyclo[2.1.1]hexan-4-yl)methyl)-5-hydroxyisoindoline-1,3-dione] | 10000 to 40000 nM
Cc1cc(OCC23CN(C(=O)Cc4ccccc4)C(CNc4cccc5c(N)nccc45)(C2)C3)cc(=O)n1C [Example 12039, 4-((1-(((1-aminoisoquinolin-5-yl)amino)methyl)-2-(2-phenylacetyl)-2-azabicyclo[2.1.1]hexan-4-yl)methoxy)-1,6-dimethylpyridin-2(1H)-one] | 10 to 100 nM
Nc1nccc2c(NCC34CC(COc5ccc6ncoc6c5)(CCO3)C4)cccc12 [Example 10973, N5-((5-((benzo[d]oxazol-6-yloxy)methyl)-2-oxabicyclo[3.1.1]heptan-1-yl)methyl)isoquinoline-1,5-diamine] | 1000 to 3000 nM
Cn1ccc(OCC23CN(C(=O)Cc4ccccc4)C(CNc4cccc5c(N)nccc45)(C2)C3)cc1=O [Example 12028, 4-((1-(((1-aminoisoquinolin-5-yl)amino)methyl)-2-(2-phenylacetyl)-2-azabicyclo[2.1.1]hexan-4-yl)methoxy)-1-methylpyridin-2(1H)-one] | 10 to 100 nM
CN(Cc1ccccc1)C(=O)N1CC2(CNc3cccc4c(N)nccc34)CC1(COc1ccn(C)c(=O)c1)C2 [Example 13011, 4-(((1-aminoisoquinolin-5-yl)amino)methyl)-N-benzyl-N-methyl-1-(((1-methyl-2-oxo-1,2-dihydropyridin-4-yl)oxy)methyl)-2-azabicyclo[2.1.1]hexane-2-carboxamide] | 300 to 1000 nM
CN1Cc2ccc(OCC34CN(C(=O)OCc5ccccc5)C(CNc5cccc6c(N)nccc56)(C3)C4)cc2C1=O [Example 12012, benzyl 1-(((1-aminoisoquinolin-5-yl)amino)methyl)-4-(((2-methyl-3-oxoisoindolin-5-yl)oxy)methyl)-2-azabicyclo[2.1.1]hexane-2-carboxylate] | 100 to 300 nM
Nc1nccc2c(NCC34CC(COc5ccncn5)(CCO3)C4)cccc12 [Example 10937, N5-((5-((pyrimidin-4-yloxy)methyl)-2-oxabicyclo[3.1.1]heptan-1-yl)methyl)isoquinoline-1,5-diamine] | 3000 to 10000 nM
Nc1nccc2c(NCC34CC(NC(=O)c5ccc6nnc(C(F)F)n6c5)(C3)C4)cccc12 [Example 1132, N-(3-(((1-aminoisoquinolin-5-yl)amino)methyl)bicyclo[1.1.1]pentan-1-yl)-3-(difluoromethyl)-[1,2,4]triazolo[4,3-a]pyridine-6-carboxamide] | 10000 to 40000 nM

Second part, the compound after the results:

IC50 | SMILES
10 to 100 nM | COc1ccccc1NC(=O)N1CC2(COc3ccn(C)c(=O)c3)CC1(CNc1cccc3c(N)nccc13)C2 [Example 12059, 1-(((1-aminoisoquinolin-5-yl)amino)methyl)-N-(2-methoxyphenyl)-4-(((1-methyl-2-oxo-1,2-dihydropyridin-4-yl)oxy)methyl)-2-azabicyclo[2.1.1]hexane-2-carboxamide]
10 to 100 nM | Cn1ccc(OCC23CN(C(=O)Cc4ccc5occc5c4)C(CNc4cccc5c(N)nccc45)(C2)C3)cc1=O [Example 12034, 4-((1-(((1-Aminoisoquinolin-5-yl)amino)methyl)-2-(2-(benzofuran-5-yl)acetyl)-2-azabicyclo[2.1.1]hexan-4-yl)methoxy)-1-methylpyridin-2(1H)-one]
10 to 100 nM | Cn1ccc(OCC23CN(C(=O)CCc4cccc(Cl)c4)C(CNc4cccc5c(N)nccc45)(C2)C3)cc1=O [Example 12049, 4-((1-(((1-aminoisoquinolin-5-yl)amino)methyl)-2-(3-(3-chlorophenyl)propanoyl)-2-azabicyclo[2.1.1]hexan-4-yl)methoxy)-1-methylpyridin-2(1H)-one]
10 to 100 nM | Cn1ccc(OCC23CN(C(=O)NCc4cccc(C(F)(F)F)c4)C(CNc4cccc5c(N)nccc45)(C2)C3)cc1=O [Example 12069, 1-(((1-aminoisoquinolin-5-yl)amino)methyl)-4-(((1-methyl-2-oxo-1,2-dihydropyridin-4-yl)oxy)methyl)-N-(3-(trifluoromethyl)benzyl)-2-azabicyclo[2.1.1]hexane-2-carboxamide]
10 to 100 nM | Cn1ccc(OCC23CC(CNc4cccc5c(N)nccc45)(CN2C(=O)OCc2ccccc2Cl)C3)cc1=O [Example 13020, 2-chlorobenzyl 4-(((1-aminoisoquinolin-5-yl)amino)methyl)-1-(((1-methyl-2-oxo-1,2-dihydropyridin-4-yl)oxy)methyl)-2-azabicyclo[2.1.1]hexane-2-carboxylate]
10 to 100 nM | COc1cccc(CCC(=O)N2CC3(COc4ccn(C)c(=O)c4)CC2(CNc2cccc4c(N)nccc24)C3)c1 [Example 12042, 4-((1-(((1-aminoisoquinolin-5-yl)amino)methyl)-2-(3-(3-methoxyphenyl)propanoyl)-2-azabicyclo[2.1.1]hexan-4-yl)methoxy)-1-methylpyridin-2(1H)-one]
1 to 10 nM | Cn1ccc(OCC23CN(c4nc5ccccc5o4)C(CNc4cccc5c(N)nccc45)(C2)C3)cc1=O [Example 12057, 4-((1-(((1-Aminoisoquinolin-5-yl)amino)methyl)-2-(benzo[d]oxazol-2-yl)-2-azabicyclo[2.1.1]hexan-4-yl)methoxy)-1-methylpyridin-2(1H)-one]
10 to 100 nM | Cn1ccc(OCC23CN(C(=O)c4ccccc4)C(CNc4cccc5c(N)nccc45)(C2)C3)cc1=O [Example 12035, 4-((1-(((1-aminoisoquinolin-5-yl)amino)methyl)-2-benzoyl-2-azabicyclo[2.1.1]hexan-4-yl)methoxy)-1-methylpyridin-2(1H)-one]
10 to 100 nM | Cn1ccc(OCC23CN(C(=O)OCc4cccnc4)C(CNc4cccc5c(N)nccc45)(C2)C3)cc1=O [Example 12022, pyridin-3-ylmethyl 1-(((1-aminoisoquinolin-5-yl)amino)methyl)-4-(((1-methyl-2-oxo-1,2-dihydropyridin-4-yl)oxy)methyl)-2-azabicyclo[2.1.1]hexane-2-carboxylate]
1 to 10 nM | Cn1ccc(OCC23CN(c4ccncc4)C(CNc4cccc5c(N)nccc45)(C2)C3)cc1=O [Example 12065, 4-((1-(((1-aminoisoquinolin-5-yl)amino)methyl)-2-(pyridin-4-yl)-2-azabicyclo[2.1.1]hexan-4-yl)methoxy)-1-methylpyridin-2(1H)-one]
10 to 100 nM | Cn1ccc(OCC23CN(c4cccnc4)C(CNc4cccc5c(N)nccc45)(C2)C3)cc1=O [Example 12064, 4-((1-(((1-aminoisoquinolin-5-yl)amino)methyl)-2-(pyridin-3-yl)-2-azabicyclo[2.1.1]hexan-4-yl)methoxy)-1-methylpyridin-2(1H)-one]
